Results as given in patent publication US20250304574A1, “3,4,6,7-TETRAHYDRO-2,7-NAPHTHYRIDINE-2(1H)-CARBOXAMIDE DERIVATIVES AS GPR65 INHIBITORS FOR THE TREATMENT OF CANCER AND AUTOIMMUNE DISEASES” (Pathios Therapeutics Limited, priority 2022, published 2025).

Target: human recombinant GPR65 (Homo sapiens, UniProt Q8IYL9)
Assay: Human GPR65 cAMP HTRF antagonist assay
Type: cell-based
Settings: 1321N1 cells stably expressing human recombinant GPR65, assay pH 7.2, read-out: hGPR65 IC50
Protocol: Human GPR65 Cyclic Adenosine Monophosphate (cAMP) Homogeneous Time Resolved Fluorescence (HTRF) Antagonist Assay Procedure
IC50 data was obtained by the following procedure:
1321N1 human astrocytoma cells stably expressing human recombinant GPR65 (1321N1-hrGPR65 cells, EuroscreenFast) were cultured according to the vendor's instructions.
Compounds were tested for their ability to antagonise GPR65, through measuring the concentration of cytoplasmic cAMP following treatment of the cells at a pH of 7.2 to activate GPR65 signalling and addition of the compound to be tested. The extent to which the expected rise in cAMP concentration upon GPR65 activation was suppressed by the added compound is indicative of its potency. The assay was carried out according to EuroscreenFast assay Methodology as follows.
On the day of the assay, test compounds were added to 384-well, low volume, white microtiter plates by acoustic dispensing. KRH buffer (5 mM KCl, 1.25 mM MgSO4, 124 mM NaCl, 25 mM HEPES, 13.3 mM Glucose, 1.25 mM KH2PO4 and 1.45 mM CaCl2) was adjusted to pH 6.5, pH 7.6 and pH 8.4 by adding NaOH. 1321N1-hGPR65 cells were rapidly thawed and diluted in KRH, pH 7.6 prior to centrifugation at 300×g for 5 min and resuspension in assay buffer (KRH, pH 7.6, supplemented with 1 mM 3-isobutyl-1-methylxanthine (IBMX) and 200 μM ethylenediaminetetraacetic acid (EDTA)). Cells were added to assay plates at a density of 2,000 cells per well in a volume of 5 μl. Assay plates were briefly centrifuged at 100×g and then incubated at room temperature for 30 min. Cells were stimulated by the addition of 5 μL KRH, pH 6.5, to achieve an assay pH of 7.2, while control wells received 5 μl KRH, pH 8.4 to achieve an assay pH of 7.9. Assay plates were briefly centrifuged at 100×g and then incubated at room temperature for 30 min.
Accumulation of cAMP was detected by cAMP HTRF kit (Cisbio). d2-labeled cAMP and cryptate-labeled anti-cAMP antibody in Lysis and Detection Buffer (Cisbio) were added to assay plates, and the plates were incubated at room temperature for 1 h. HTRF measurements were performed using a Pherastar FSX instrument. Acceptor and donor emission signals were measured at 665 nm and 620 nm, respectively, and HTRF ratios were calculated as signal665 nm/signal620nm×10^4. Data were normalised to high and low control values and fitted with 4-parameter logistic regression to determine hGPR65 IC50 values for the test compounds, which are shown in Table 1.

human recombinant GPR65, sequence (Q8IYL9 whole entry): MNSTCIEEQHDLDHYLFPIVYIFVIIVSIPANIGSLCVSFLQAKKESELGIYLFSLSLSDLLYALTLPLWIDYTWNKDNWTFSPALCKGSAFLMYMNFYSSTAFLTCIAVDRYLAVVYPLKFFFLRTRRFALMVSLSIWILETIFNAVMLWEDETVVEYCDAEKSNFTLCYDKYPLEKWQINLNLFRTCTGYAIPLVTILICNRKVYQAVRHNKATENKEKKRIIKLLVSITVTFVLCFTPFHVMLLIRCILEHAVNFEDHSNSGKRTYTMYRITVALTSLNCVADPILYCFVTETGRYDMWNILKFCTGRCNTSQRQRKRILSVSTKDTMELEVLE

Row | IC50 [nM] | SMILES
1 | < 500 | CC1CN(C(=O)Nc2cc(Cl)c(C(F)(F)F)cc2F)Cc2c[nH]c(=O)cc21 (racemic) [Compound 21, (±)-N-(5-chloro-2-fluoro-4-(trifluoromethyl)phenyl)-4-methyl-6-oxo-3,4,6,7-tetrahydro-2,7-naphthyridine-2(1H)-carboxamide]
2 | < 500 | C[C@@H]1CN(C(=O)Nc2cc(Cl)c(C(F)(F)F)cc2F)Cc2c[nH]c(=O)cc21 (single isomer, unassigned; isomer 1) [Compound 25, N-(5-chloro-2-fluoro-4-(trifluoromethyl)phenyl)-4-methyl-6-oxo-3,4,6,7-tetrahydro-2,7-naphthyridine-2(1H)-carboxamide isomer 1]
3 | < 500 | C[C@@H]1CN(C(=O)Nc2cc(Cl)c(C(F)(F)F)cc2F)Cc2ccnc(F)c21 (single isomer, unassigned; isomer 1) [Compound 28, N-(5-chloro-2-fluoro-4-(trifluoromethyl)phenyl)-5-fluoro-4-methyl-3,4-dihydro-2,6-naphthyridine-2(1H)-carboxamide isomer 1]
4 | < 500 | C[C@H]1CN(C(=O)Nc2cc(Cl)c(C(F)(F)F)cc2F)Cc2c[nH]c(=O)cc21 (single isomer, unassigned; isomer 2) [Compound 26, N-(5-chloro-2-fluoro-4-(trifluoromethyl)phenyl)-4-methyl-6-oxo-3,4,6,7-tetrahydro-2,7-naphthyridine-2(1H)-carboxamide isomer 2]
5 | < 500 | C[C@H]1CN(C(=O)Nc2cc(Cl)c(C(F)(F)F)cc2F)Cc2ccnc(F)c21 (single isomer, unassigned; isomer 2) [Compound 29, N-(5-chloro-2-fluoro-4-(trifluoromethyl)phenyl)-5-fluoro-4-methyl-3,4-dihydro-2,6-naphthyridine-2(1H)-carboxamide isomer 2]
6 | < 500 | O=C(Nc1cc(Br)c(C(F)(F)F)cc1F)N1CCc2cc(=O)[nH]cc2C1 [Compound 1, N-(5-bromo-2-fluoro-4-(trifluoromethyl)phenyl)-6-oxo-3,4,6,7-tetrahydro-2,7-naphthyridine-2(1H)-carboxamide]
7 | < 500 | O=C(Nc1cc(Cl)c(C(F)(F)F)cc1F)N1CCc2cc(=O)[nH]cc2C1 [Compound 2, N-(5-Chloro-2-fluoro-4-(trifluoromethyl)phenyl)-6-oxo-3,4,6,7-tetrahydro-2,7-naphthyridine-2(1H)-carboxamide]
8 | < 500 | O=C(Nc1cc(Cl)c(Br)cc1F)N1CCc2cc(=O)[nH]cc2C1 [Compound 3, N-(4-Bromo-5-chloro-2-fluorophenyl)-6-oxo-3,4,6,7-tetrahydro-2,7-naphthyridine-2(1H)-carboxamide]
9 | < 500 | O=C(Nc1cc(C(F)(F)F)on1)N1CCc2cc(=O)[nH]cc2C1 [Compound 4, 6-Oxo-N-(5-(trifluoromethyl)isoxazol-3-yl)-3,4,6,7-tetrahydro-2,7-naphthyridine-2(1H)-carboxamide]
10 | 500 to 5000 | O=C(Nc1cc(Cl)c(C(F)(F)F)cn1)N1CCc2cc(=O)[nH]cc2C1 [Compound 5, N-(4-chloro-5-(trifluoromethyl)pyridin-2-yl)-6-oxo-3,4,6,7-tetrahydro-2,7-naphthyridine-2(1H)-carboxamide]
11 | 500 to 5000 | N#Cc1ccc2c(c1)CCN(C(=O)Nc1cc(C(F)(F)F)on1)C2 [Compound 6, 6-Cyano-N-(5-(trifluoromethyl)isoxazol-3-yl)-3,4-dihydroisoquinoline-2(1H)-carboxamide]
12 | 500 to 5000 | O=C(Nc1nnc(C(F)(F)F)s1)N1CCc2cc(=O)[nH]cc2C1 [Compound 7, 6-Oxo-N-(5-(trifluoromethyl)-1,3,4-thiadiazol-2-yl)-3,4,6,7-tetrahydro-2,7-naphthyridine-2(1H)-carboxamide]
13 | 500 to 5000 | O=C(Nc1cc(Cl)c(Cl)cn1)N1CCc2cc(=O)[nH]cc2C1 [Compound 8, N-(4,5-Dichloropyridin-2-yl)-6-oxo-3,4,6,7-tetrahydro-2,7-naphthyridine-2(1H)-carboxamide]
14 | < 500 | O=C(Nc1nnc(C(F)(F)F)s1)N1CCc2cc(F)ccc2C1 [Compound 9, 6-Fluoro-N-(5-(trifluoromethyl)-1,3,4-thiadiazol-2-yl)-3,4-dihydroisoquinoline-2(1H)-carboxamide]
15 | < 500 | O=C(Nc1nnc(C(F)(F)F)s1)N1CCc2cc(Cl)ccc2C1 [Compound 10, 6-Chloro-N-(5-(trifluoromethyl)-1,3,4-thiadiazol-2-yl)-3,4-dihydroisoquinoline-2(1H)-carboxamide]
16 | < 500 | O=C(Nc1cc(Cl)c(C(F)(F)F)cc1F)N1CCc2cc(F)ccc2C1 [Compound 11, N-(5-Chloro-2-fluoro-4-(trifluoromethyl)phenyl)-6-fluoro-3,4-dihydroisoquinoline-2(1H)-carboxamide]
17 | 500 to 5000 | O=C(Nc1cc(Cl)c(Cl)cn1)N1CCc2cc(F)ncc2C1 [Compound 12, N-(4,5-Dichloropyridin-2-yl)-6-fluoro-3,4-dihydro-2,7-naphthyridine-2(1H)-carboxamide]
18 | 500 to 5000 | O=C(Nc1cc(Cl)c(C(F)(F)F)cn1)N1CCc2cc(F)ncc2C1 [Compound 13, N-(4-Chloro-5-(trifluoromethyl)pyridin-2-yl)-6-fluoro-3,4-dihydro-2,7-naphthyridine-2(1H)-carboxamide]
19 | 500 to 5000 | O=C1NN=C2CN(C(=O)Nc3cc(Cl)c(C(F)(F)F)cc3F)CC=C2N1 [Compound 14, N-(5-Chloro-2-fluoro-4-(trifluoromethyl)phenyl)-3-oxo-2,4,6,8-tetrahydropyrido[4,3-e][1,2,4]triazine-7(3H)-carboxamide]
20 | < 500 | O=C(Nc1cc(Cl)c(C(F)(F)F)cc1F)N1CCc2cc(=O)[nH]nc2C1 [Compound 15, N-(5-Chloro-2-fluoro-4-(trifluoromethyl)phenyl)-3-oxo-2,5,6,8-tetrahydropyrido[3,4-c]pyridazine-7(3H)-carboxamide]
21 | < 500 | O=C(Nc1cc(Cl)c(C(F)(F)F)cn1)N1CCc2c(ccnc2F)C1 [Compound 16, N-(4-chloro-5-(trifluoromethyl)pyridin-2-yl)-5-fluoro-3,4-dihydro-2,6-naphthyridine-2(1H)-carboxamide]
22 | < 500 | O=C(Nc1cc(Cl)c(C(F)(F)F)cc1F)N1CCc2c(ccnc2F)C1 [Compound 17, N-(5-Chloro-2-fluoro-4-(trifluoromethyl)phenyl)-5-fluoro-3,4-dihydro-2,6-naphthyridine-2(1H)-carboxamide]
23 | 500 to 5000 | CS(=O)(=O)c1nnc2c(n1)CCN(C(=O)Nc1cc(Cl)c(C(F)(F)F)cc1F)C2 [Compound 18, N-(5-chloro-2-fluoro-4-(trifluoromethyl)phenyl)-3-(methylsulfonyl)-5,8-dihydropyrido[4,3-e][1,2,4]triazine-7(6H)-carboxamide]
24 | < 500 | O=C(Nc1cc(Cl)c(Cl)cn1)N1CCc2c(ccnc2F)C1 [Compound 19, N-(4,5-Dichloropyridin-2-yl)-5-fluoro-3,4-dihydro-2,6-naphthyridine-2(1H)-carboxamide]
25 | 500 to 5000 | CC1CN(C(=O)Nc2cc(Cl)c(C(F)(F)F)cc2F)Cc2cnc(F)cc21 (centres unmarked) [Compound 20, N-(5-Chloro-2-fluoro-4-(trifluoromethyl)phenyl)-6-fluoro-4-methyl-3,4-dihydro-2,7-naphthyridine-2(1H)-carboxamide]
26 | 500 to 5000 | C=C1CN(C(=O)Nc2cc(Cl)c(C(F)(F)F)cc2F)Cc2cnc(F)cc21 [Compound 22, N-(5-Chloro-2-fluoro-4-(trifluoromethyl)phenyl)-6-fluoro-4-methylene-3,4-dihydro-2,7-naphthyridine-2(1H)-carboxamide]
27 | < 500 | CC1CN(C(=O)Nc2cc(Cl)c(C(F)(F)F)cc2F)Cc2ccnc(F)c21 (centres unmarked) [Compound 23, N-(5-Chloro-2-fluoro-4-(trifluoromethyl)phenyl)-5-fluoro-4-methyl-3,4-dihydro-2,6-naphthyridine-2(1H)-carboxamide]
28 | < 500 | C=C1CN(C(=O)Nc2cc(Cl)c(C(F)(F)F)cc2F)Cc2ccnc(F)c21 [Compound 24, N-(5-Chloro-2-fluoro-4-(trifluoromethyl)phenyl)-5-fluoro-4-methylene-3,4-dihydro-2,6-naphthyridine-2(1H)-carboxamide]
29 | < 500 | O=C(Nc1cc(Cl)c(C(F)(F)F)cc1F)N1Cc2ccnc(F)c2C(F)C1 (centres unmarked) [Compound 27, N-(5-chloro-2-fluoro-4-(trifluoromethyl)phenyl)-4,5-difluoro-3,4-dihydro-2,6-naphthyridine-2(1H)-carboxamide]
